Experimental data as given in patent publication US10669263B2, “Substituted benzimidazole derivative as a modulator of TNF activity” (UCB Biopharma SRL, priority 2016, dated 2020).
pIC50: −log10 of the molar value. Several values for one entry are separate records, joined by “and”; a condition that tells them apart may be missing. Identical values can stand only once.

Key:
[1] = target: T1, TNFα (Homo sapiens, UniProt P01375); assay: Reporter gene assay (HEK-293 bioassay): inhibition of TNFα-induced NF-κB activation in HEK-Blue CD40L cells; format: cell-based; conditions: 0.5 ng/mL TNFα, 60 minutes preincubation, 18 h incubation, read-out: IC50 value, inhibition of TNFα-induced NF-κB activation (SEAP reporter)
T1 sequence (P01375 77-233 limits assumed): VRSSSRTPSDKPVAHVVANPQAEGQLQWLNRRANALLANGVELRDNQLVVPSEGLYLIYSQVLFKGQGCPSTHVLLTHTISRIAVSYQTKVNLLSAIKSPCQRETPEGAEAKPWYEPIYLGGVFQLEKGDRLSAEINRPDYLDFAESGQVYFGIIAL
Excerpt: The compounds in accordance with the present invention potently neutralise the activity of TNFα in a commercially available HEK-293 derived reporter cell line known as HEK-Blue™ CD40L. This is a stable HEK-293 transfected cell line expressing SEAP (secreted embryonic alkaline phosphatase) under the control of the IFNβ minimal promoter fused to five NF-κB binding sites. Secretion of SEAP by these cells is stimulated in a concentration-dependent manner by TNFα.
Inhibition of TNFα-induced NF-κB Activation
Stimulation of HEK-293 cells by TNFα leads to activation of the NF-κB pathway. The reporter cell line used to determine TNFα activity was purchased from InvivoGen. HEK-Blue™ CD40L is a stable HEK-293 transfected cell line expressing SEAP (secreted embryonic alkaline phosphatase) under the control of the IFNβ minimal promoter fused to five NF-κB binding sites. Secretion of SEAP by these cells is stimulated in a dose-dependent manner by TNFα, with an EC50 of 0.5 ng/mL for human TNFα. […] SEAP activity was determined in the supernatant using a colorimetric substrate, e.g. QUANTI-Blue™ or HEK-Blue™ Detection media (InvivoGen). Percentage inhibitions for compound dilutions were calculated between a DMSO control and maximum inhibition (by excess control compound) and an IC50 value calculated using XLfit™ (4 parameter logistic model) in ActivityBase.

[2] = target: T1, TNFα; assay: Fluorescence polarisation assay: inhibition of binding of fluorescence conjugate to TNFα; conditions: 10 nM TNFα, 10 nM fluorescence conjugate, 60 minutes pre-incubation, then 20 hours at ambient temperature
Protocol: Fluorescence Polarisation Assay
Inhibition of Binding of Fluorescence Conjugate to TNFα
Compounds were tested at 10 concentrations starting from 25 μM in a final assay concentration of 5% DMSO, by pre-incubation with TNFα for 60 minutes at ambient temperature in 20 mM Tris, 150 mM NaCl, 0.05% Tween 20, before addition of the fluorescence conjugate and a further incubation for 20 hours at ambient temperature. The final concentrations of TNFα and the fluorescence conjugate were 10 nM and 10 nM respectively in a total assay volume of 25 μL. Plates were read on a plate reader capable of detecting fluorescence polarisation (e.g. an Analyst HT plate reader; or an Envision plate reader). An IC50 value was calculated using XLfit™ (4 parameter logistic model) in ActivityBase.

pIC50 [1]: > 7.30 and 7.30 to 9.30
pIC50 [2]: > 7.70 and 7.70 to 10.00
SMILES: Cc1nc2ccc(-c3cnc(C(C)(C)O)nc3)cc2n1Cc1c(F)cccc1OC(F)F [Example 1, 2-(5-{1-[2-(Difluoromethoxy)-6-fluorobenzyl]-2-methyl-1H-benzimidazol-6-yl}-pyrimidin-2-yl)propan-2-ol]
